Data as given in patent US11274100B2, “EP300/CREBBP inhibitor” (Daiichi Sankyo Company, Limited, priority 2017, dated 2022).

Tests used:
EP300 = EP300 (Homo sapiens, UniProt Q09472); test: Histone acetyltransferase inhibitory activity against EP300 (Test Example 1); format: biochemical; details: 50 ng/mL EP300, 2 μM Acetyl-CoA, 100 nM Histone H4(1-25)-GSGSK (Biotin), 28° C. for 1 hour
Procedure: (§1) [Test Example 1] Evaluation of Histone
(§2) Acetyltransferase Inhibitory Activity against EP300 and CREBBP
(§3) 10 μL each of reaction solutions each containing a different concentration of the compound of each of Examples 1 to 108b (50 mM Tris-HCl (pH8.0), 0.1 mM EDTA, 1 mM dithiothreitol, 0.01% Tween-20, 0.01% Bovine serum albumin, 330 nM trichostatin A, 2 μM Acetyl-CoA (Sigma-Aldrich, #A2056), 100 nM Histone H4(1-25)-GSGSK (Biotin) (Anaspec, #65242-1), 1% dimethyl sulfoxide, 10 to 0.0006 μM of each compound, 50 ng/mL EP300 or 125 ng/mL CREBBP) was added to respective wells of a 384-well plate, and cultured at 28° C. for 1 hour. Thereafter, 5 μL of 30 μM Lys-CoA (Daiichi Sankyo Co., Ltd.) dissolved in LANCE detection buffer (Perkin Elmer Co., Ltd., #CR97-100) was added to each well. Furthermore, 5 μL of LANCE detection buffer containing 2 nM Eu-anti pan-Ac (Perkin Elmer Co., Ltd., #TRF0412) and 50 nM Sta-Ulight (Perkin Elmer Co., Ltd., #TRF0102) was added to each well, and the resultant was cultured at room temperature overnight. EnVision (Perkin Elmer Co., Ltd., Model 2104-0020) was used to measure ULight signals. […] EP300 and CREBBP were produced and purified by Daiichi Sankyo RD Novare Co., Ltd.

CREBBP = CREBBP (Homo sapiens, UniProt Q92793); test: Histone acetyltransferase inhibitory activity against CREBBP (Test Example 1); format: biochemical; details: 125 ng/mL CREBBP, 2 μM Acetyl-CoA, 100 nM Histone H4(1-25)-GSGSK (Biotin), 28° C. for 1 hour
Procedure: as §1, §2, §3

H3K27Ac = test: Intracellular H3K27Ac inhibitory activity in LK2 cells (Test Example 2); format: cell-based; details: Homo sapiens, LK-2, cultured with compound for 3 hours, read-out: Test Example 2 H3K27Ac Inhibition (LK2) IC50
Procedure: [Test Example 2] Evaluation of Intracellular H3K27Ac Inhibitory Activity
LK2 cells derived from human squamous cell lung cancer were seeded in a 96 well plate at 40000 cells/100 μL/well, and were cultured overnight at 37° C. in 5% CO2. The LK2 cells were purchased from Human Science Research Resources Bank. […] The supernatant was discarded, 4% paraformaldehyde was added thereto at 100 μL/well, and the resultant was allowed to stand still at room temperature for 15 minutes. The 4% paraformaldehyde was discarded, and the resultant was washed with PBS-T. A quenching buffer (PBS-T containing 1% H2O2) was added thereto at of 100 μL/well, and the resultant was allowed to stand still at room temperature for 10 minutes. The resultant was washed with PBS-T, a blocking buffer (StartingBlocK T20 (TBS) Blocking Buffer (Thermo […], #37543)) was added thereto at 200 μL/well, and the resultant was allowed to stand still at room temperature for 1 hour. The supernatant was discarded, Acetyl-Histone H3 (Lys27) (D5E4) XP (registered trademark) Rabbit mAb (cell Signaling, #8173) diluted with a blocking buffer was added thereto at 50 μL/well, and the resultant was allowed to stand still at 4° C. overnight. The resultant was washed with PBS-T, Anti-Rabbit IgG-HRP (Cell Signaling, #7074S) diluted with a blocking buffer was added thereto at 50 μL/well, and the resultant was cultured at room temperature for 1 hour. The resultant was washed with PBS-T, SuperSignal (registered trademark) ELISA Pico Chemiluminescent Substrate (Thermo […], #37069) was added thereto at 50 μL/well, and a signal was measured using EnVision.

LK2 cells = test: Cell growth inhibitory activity, LK2 cells (Test Example 3); format: cell-based; details: Homo sapiens, LK-2, 72 h, cultured for 3 days, CellTiter-Glo
Procedure: (§4) [Test Example 3] Evaluation of Cell Growth Inhibitory Activity
(§5) As a culture medium for each cell, a 10% FBS supplemented RPMI 1640 medium (for LK2 cells and TE-8 cells derived from human esophageal cancer) was used. LK2 cells were purchased from Human Science Research Resources Bank, and TE-8 cells were purchased from Riken Cell Bank. The compound of each of Examples 1 to 108b was prepared by dilution with Freedom EVO 150 (Tecan Trading AG) (4-fold diluted, 10 stages, 10 mM to 38 nM). The resultant was added to respective wells of a 384-well plate in an amount of 40 nL/well using Echo 555 (Labcyte Inc.). The LK2 or TE-8 cells were seeded in the plate at 400 cells/40 μL/well (day 0), and were cultured for 3 days. On the day of addition of the compound (day 0) and 3 days after the addition of the compound (day 3), an ATP measurement reagent of CellTiter-Glo (registered trademark) 2.0 Assay (Promega Corporation, #G9242) was added to each well in an amount of 10 μL/well, and the amount of luminescence of each well was measured using EnVision. Based on the amount of luminescence (C0) on the day of the addition of the compound, and the amounts of luminescence of a compound non-addition group (C3) and a compound addition group (T3) obtained after the 3-day culture of the compound, a cell survival rate was calculated in accordance with the following expression: Cell survival rate (%)=(T3−C0)/(C3−C0)×100
(§6) A concentration (GI50 value) of each compound at which the growth of the TE-8 or LK-2 cells was inhibited by 50% was calculated by semilogarithmically plotting the cell survival rate at each concentration and the compound concentration.

TE-8 cells = test: Cell growth inhibitory activity, TE-8 cells (Test Example 3); format: cell-based; details: Homo sapiens, 72 h, cultured for 3 days, CellTiter-Glo
Procedure: as §4, §5, §6

Chain of EP300 (Q09472 whole entry): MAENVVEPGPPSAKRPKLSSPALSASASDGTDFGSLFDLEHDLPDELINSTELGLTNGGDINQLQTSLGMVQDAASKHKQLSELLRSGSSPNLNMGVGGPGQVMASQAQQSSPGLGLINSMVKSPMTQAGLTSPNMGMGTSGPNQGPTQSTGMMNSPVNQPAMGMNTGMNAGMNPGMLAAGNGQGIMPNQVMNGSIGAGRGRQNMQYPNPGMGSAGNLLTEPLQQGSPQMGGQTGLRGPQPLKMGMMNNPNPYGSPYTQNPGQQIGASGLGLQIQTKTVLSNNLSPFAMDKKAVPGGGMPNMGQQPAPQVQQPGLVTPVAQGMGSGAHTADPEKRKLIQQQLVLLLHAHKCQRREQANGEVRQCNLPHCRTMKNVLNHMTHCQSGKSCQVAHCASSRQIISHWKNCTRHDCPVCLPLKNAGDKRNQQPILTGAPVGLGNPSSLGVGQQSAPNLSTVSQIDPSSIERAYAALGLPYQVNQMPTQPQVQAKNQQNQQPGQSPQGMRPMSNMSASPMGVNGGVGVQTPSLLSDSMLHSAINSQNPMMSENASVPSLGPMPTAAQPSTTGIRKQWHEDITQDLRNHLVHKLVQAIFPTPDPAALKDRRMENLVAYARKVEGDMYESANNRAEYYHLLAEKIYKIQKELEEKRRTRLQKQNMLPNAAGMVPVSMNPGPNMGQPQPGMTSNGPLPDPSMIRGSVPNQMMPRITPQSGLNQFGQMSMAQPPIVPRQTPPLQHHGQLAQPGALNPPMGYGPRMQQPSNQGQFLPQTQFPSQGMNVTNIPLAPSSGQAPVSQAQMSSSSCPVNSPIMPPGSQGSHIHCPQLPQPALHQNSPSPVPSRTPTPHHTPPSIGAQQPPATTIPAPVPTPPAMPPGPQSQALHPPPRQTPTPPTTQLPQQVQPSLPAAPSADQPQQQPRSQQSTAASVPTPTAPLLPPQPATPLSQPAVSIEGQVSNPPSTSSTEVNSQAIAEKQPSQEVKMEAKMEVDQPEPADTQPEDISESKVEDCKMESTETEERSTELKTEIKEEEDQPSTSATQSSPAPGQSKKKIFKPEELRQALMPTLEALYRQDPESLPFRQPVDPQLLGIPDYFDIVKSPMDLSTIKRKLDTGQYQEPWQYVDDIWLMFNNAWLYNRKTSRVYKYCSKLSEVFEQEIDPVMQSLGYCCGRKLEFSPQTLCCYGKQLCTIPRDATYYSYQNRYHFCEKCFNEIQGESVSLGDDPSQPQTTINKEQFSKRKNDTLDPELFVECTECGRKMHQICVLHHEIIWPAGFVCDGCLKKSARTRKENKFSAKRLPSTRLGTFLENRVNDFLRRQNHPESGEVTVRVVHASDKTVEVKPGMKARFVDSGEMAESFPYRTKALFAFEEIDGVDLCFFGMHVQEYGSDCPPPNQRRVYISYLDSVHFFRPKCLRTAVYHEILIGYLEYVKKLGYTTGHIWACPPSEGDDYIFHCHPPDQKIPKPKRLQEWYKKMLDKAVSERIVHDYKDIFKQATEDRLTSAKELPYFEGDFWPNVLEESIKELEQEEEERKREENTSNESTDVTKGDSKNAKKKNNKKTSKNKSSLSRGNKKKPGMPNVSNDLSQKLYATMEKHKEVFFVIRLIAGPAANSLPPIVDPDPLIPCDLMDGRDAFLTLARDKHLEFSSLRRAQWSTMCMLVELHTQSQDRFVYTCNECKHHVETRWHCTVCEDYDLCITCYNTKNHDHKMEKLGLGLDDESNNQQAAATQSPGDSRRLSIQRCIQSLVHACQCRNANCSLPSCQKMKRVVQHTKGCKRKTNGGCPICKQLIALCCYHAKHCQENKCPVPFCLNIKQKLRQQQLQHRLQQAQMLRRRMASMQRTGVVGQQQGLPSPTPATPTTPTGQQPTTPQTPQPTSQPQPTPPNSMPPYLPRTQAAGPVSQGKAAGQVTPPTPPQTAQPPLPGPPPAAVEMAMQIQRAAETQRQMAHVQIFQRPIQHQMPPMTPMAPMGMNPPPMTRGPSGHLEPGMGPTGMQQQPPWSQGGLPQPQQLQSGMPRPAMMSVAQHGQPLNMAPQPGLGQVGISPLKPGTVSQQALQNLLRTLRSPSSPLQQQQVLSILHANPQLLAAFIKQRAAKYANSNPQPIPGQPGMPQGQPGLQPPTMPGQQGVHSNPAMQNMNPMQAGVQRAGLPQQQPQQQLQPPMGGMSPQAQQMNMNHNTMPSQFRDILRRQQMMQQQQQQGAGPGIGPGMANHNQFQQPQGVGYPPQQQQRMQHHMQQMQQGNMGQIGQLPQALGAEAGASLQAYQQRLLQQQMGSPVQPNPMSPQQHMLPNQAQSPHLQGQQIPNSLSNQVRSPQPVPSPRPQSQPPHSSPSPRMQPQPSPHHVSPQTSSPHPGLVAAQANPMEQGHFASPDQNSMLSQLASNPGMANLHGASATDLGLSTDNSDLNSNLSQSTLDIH
Chain of CREBBP (Q92793 whole entry): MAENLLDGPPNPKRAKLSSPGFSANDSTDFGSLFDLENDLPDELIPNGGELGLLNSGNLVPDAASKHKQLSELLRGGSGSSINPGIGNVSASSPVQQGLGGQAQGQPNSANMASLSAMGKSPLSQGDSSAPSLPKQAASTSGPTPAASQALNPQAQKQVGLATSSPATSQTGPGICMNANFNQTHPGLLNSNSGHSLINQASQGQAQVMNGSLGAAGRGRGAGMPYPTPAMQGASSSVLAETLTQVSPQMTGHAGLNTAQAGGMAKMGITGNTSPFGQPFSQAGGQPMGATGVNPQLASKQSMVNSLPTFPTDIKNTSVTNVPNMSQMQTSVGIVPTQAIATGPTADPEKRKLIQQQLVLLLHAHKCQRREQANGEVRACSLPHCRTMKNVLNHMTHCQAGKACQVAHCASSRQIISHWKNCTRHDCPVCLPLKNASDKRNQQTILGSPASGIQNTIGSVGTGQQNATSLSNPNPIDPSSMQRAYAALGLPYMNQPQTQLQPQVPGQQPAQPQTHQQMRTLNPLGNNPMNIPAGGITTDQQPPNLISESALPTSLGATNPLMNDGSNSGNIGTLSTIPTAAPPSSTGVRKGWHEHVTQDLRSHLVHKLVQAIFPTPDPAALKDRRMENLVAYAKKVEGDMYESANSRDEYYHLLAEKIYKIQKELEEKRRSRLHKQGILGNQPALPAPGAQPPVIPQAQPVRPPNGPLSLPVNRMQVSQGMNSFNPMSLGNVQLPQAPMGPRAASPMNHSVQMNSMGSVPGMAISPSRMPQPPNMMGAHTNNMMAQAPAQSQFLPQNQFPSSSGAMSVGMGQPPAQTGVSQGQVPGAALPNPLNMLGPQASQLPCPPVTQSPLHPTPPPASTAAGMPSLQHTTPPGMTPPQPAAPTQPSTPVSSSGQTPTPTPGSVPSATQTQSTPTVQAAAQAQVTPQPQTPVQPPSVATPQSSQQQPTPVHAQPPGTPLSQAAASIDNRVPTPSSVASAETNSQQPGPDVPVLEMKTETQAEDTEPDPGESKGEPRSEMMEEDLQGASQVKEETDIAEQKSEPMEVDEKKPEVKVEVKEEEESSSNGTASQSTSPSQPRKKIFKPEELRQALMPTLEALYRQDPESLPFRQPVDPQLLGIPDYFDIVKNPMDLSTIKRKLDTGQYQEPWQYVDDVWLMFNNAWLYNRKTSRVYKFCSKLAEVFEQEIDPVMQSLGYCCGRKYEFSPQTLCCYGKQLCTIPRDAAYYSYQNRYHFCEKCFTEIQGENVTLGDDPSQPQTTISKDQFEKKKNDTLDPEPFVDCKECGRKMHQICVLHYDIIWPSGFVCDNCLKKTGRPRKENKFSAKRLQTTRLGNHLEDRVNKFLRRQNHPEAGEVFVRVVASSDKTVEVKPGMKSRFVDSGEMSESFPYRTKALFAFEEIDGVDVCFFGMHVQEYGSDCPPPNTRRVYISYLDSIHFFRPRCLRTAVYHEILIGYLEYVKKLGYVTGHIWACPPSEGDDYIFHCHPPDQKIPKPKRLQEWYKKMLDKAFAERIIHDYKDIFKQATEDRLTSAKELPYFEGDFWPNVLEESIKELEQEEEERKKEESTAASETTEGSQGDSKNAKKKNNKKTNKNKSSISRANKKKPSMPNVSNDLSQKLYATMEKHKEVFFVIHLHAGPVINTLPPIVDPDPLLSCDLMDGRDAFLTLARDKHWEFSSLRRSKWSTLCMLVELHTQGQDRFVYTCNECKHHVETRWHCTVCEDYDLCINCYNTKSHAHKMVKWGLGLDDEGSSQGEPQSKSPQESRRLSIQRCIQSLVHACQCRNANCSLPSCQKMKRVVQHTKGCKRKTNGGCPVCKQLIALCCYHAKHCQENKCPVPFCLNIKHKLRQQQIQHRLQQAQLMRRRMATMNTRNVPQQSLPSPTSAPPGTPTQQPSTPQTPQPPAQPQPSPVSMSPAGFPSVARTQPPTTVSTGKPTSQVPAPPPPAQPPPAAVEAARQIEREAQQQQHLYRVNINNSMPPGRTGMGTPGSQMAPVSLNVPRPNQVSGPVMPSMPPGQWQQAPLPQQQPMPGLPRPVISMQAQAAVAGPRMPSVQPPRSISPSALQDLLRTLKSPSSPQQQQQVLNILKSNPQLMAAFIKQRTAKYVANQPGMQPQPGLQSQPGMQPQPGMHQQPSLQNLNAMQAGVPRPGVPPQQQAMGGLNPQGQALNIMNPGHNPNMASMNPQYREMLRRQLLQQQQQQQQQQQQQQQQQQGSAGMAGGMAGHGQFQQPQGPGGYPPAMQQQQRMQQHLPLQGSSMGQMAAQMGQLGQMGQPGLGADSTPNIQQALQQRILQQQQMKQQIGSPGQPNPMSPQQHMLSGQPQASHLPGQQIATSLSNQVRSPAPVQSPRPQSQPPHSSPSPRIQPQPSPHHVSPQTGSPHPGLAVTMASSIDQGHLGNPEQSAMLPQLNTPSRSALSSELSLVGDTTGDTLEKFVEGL

Structure (SMILES) | IC50 (EP300) | IC50 (CREBBP) | IC50 (H3K27Ac) | GI50 (LK2 cells) | GI50 (TE-8 cells)
COc1ccc(C2(C(=O)N3C[C@H](F)C[C@@H]3C(=O)Nc3cccc4[nH]ncc34)CCCCO2)cc1 (single isomer, unassigned) [Example 44] | 48 nM | 48 nM | 246 nM | 589 nM | 1740 nM
COc1ccc(C2(C(=O)N3CCOCC(Cc4cccc5[nH]ncc45)C3)CCCC2)cc1 (single isomer, unassigned) [Example 108b, [6-(1H-Indazol-4-ylmethyl)-1,4-oxazepan-4-yl][1-(4-methoxyphenyl)cyclopentyl]methanone] | 50 nM | 83 nM | 125 nM | 1090 nM | 1160 nM
COc1ccc(C2(C(=O)N3CCC[C@@H]3C(=O)Nc3cccc4[nH]ncc34)CCCC2)cc1 [Example 1, N-1H-Indazol-4-yl-1-{[1-(4-methoxyphenyl)cyclopentyl]carbonyl}-D-prolinamide] | 176 nM | 218 nM |  | 2740 nM | 3410 nM
COc1ccc(C2(C(=O)N3CCC[C@@H]3C(=O)Nc3ccn(C)n3)CCCC2)cc1 [Example 22, 1-{[1-(4-Methoxyphenyl)cyclopentyl]carbonyl}-N-(1-methyl-1H-pyrazol-3-yl)-D-prolinamide] | 962 nM | 676 nM | 2250 nM |  | 
COc1ccc(C2(C(=O)N3CCC[C@@H]3C(=O)Nc3ccc(OCCN4CCOCC4)cc3C#N)CCCC2)cc1 [Example 23, N-{2-Cyano-4-[2-(morpholin-4-yl)ethoxy]phenyl}-1-{[1-(4-methoxyphenyl)cyclopentyl]carbonyl}-D-prolinamide] | 101 nM | 171 nM | 121 nM |  | 
COc1ccc(C2(C(=O)N3CCC[C@@H]3C(=O)Nc3ccc4[nH]ncc4c3)CCCC2)cc1 [Example 24, N-1H-Indazol-5-yl-1-{[1-(4-methoxyphenyl)cyclopentyl]carbonyl}-D-prolinamide] | 254 nM | 128 nM | 916 nM | 1620 nM | 4060 nM
N#Cc1ccccc1NC(=O)[C@H]1C[C@@H](F)CN1C(=O)C1(c2ccc(C(=O)O)cc2)CCCC1 [Example 29, 4-[1-({(2R,4R)-2-[(2-Cyanophenyl)carbamoyl]-4-fluoropyrrolidin-1-yl}carbonyl)cyclopentyl] benzoic acid] | 20 nM | 125 nM | 474 nM |  | 
CNc1cccc(NC(=O)[C@H]2CCCN2C(=O)C2(c3ccc(OC)cc3)CCCC2)n1 [Example 30, 1-{[1-(4-Methoxyphenyl)cyclopentyl]carbonyl}-N-[6-(methylamino)pyridin-2-yl)-D-prolinamide] | 182 nM | 233 nM | 577 nM |  | 
COc1ccc(C2(C(=O)N3C[C@](C)(O)C[C@@H]3C(=O)Nc3cccc4[nH]ncc34)CCCC2)cc1 [Example 31, (4R)-4-Hydroxy-N-1H-indazol-4-yl-1-{[1-(4-methoxyphenyl)cyclopentyl]carbonyl}-4-methyl-D-prolinamide] | 364 nM | 652 nM | 1550 nM |  | 
COc1ccc(C2(C(=O)N3CSC[C@@H]3C(=O)Nc3ccccc3C#N)CCCCC2)cc1 [Example 34, (4S)—N-(2-Cyanophenyl)-3-{[1-(4-methoxyphenyl)cyclohexyl]carbonyl}-1,3-thiazolidine-4-carboxamide] | 40 nM | 39 nM | 307 nM |  | 
O=C(NS(=O)(=O)C1CC1)c1ccc(C2(C(=O)N3C[C@H](F)C[C@@H]3C(=O)Nc3cccc4[nH]ncc34)CCCCC2)cc1 [Example 36, (4R)-1-[(1-{4-[(Cyclopropylsulfonyl)carbamoyl]phenyl}cyclohexyl)carbonyl]-4-fluoro-N-1H-indazol-4-yl-D-prolinamide] | 17 nM | 23 nM | > 10000 nM |  | 
COc1ccc(C2(C(=O)N3C[C@H](F)[C@@H](O)[C@@H]3C(=O)Nc3ccc4[nH]ncc4n3)CCC(F)(F)CC2)cc1 [Example 38] | 57 nM | 109 nM | 38 nM | 117 nM | 176 nM
COc1ccc(C2(C(=O)N3CS(=O)(=O)C[C@@H]3C(=O)Nc3ccc4[nH]ncc4n3)CCCCC2)cc1 [Example 40, (4S)-3-{[1-(4-Methoxyphenyl)cyclohexyl]carbonyl}-N-(1H-pyrazolo[4,3-b]pyridin-5-yl)-1,3-thiazolidin-4-carboxamide 1,1-dioxide] | 22 nM | 29 nM | 27 nM |  | 
COc1ccc(C2(C(=O)N3C[C@H](F)C[C@@H]3C(=O)Nc3ccc4[nH]ncc4n3)CCOCC2)cc1 [Example 45, (4R)-4-Fluoro-1-{[4-(4-methoxyphenyl)tetrahydro-2H-pyran-4-yl]carbonyl}-N-1H-pyrazolo[4,3-b]pyridin-5-yl-D-prolinamide] | 31 nM | 128 nM | 101 nM | 733 nM | 1350 nM
COc1ccc(C2(C(=O)N(C)[C@H](C)C(=O)Nc3ccc4[nH]ncc4n3)CCCCC2)cc1 [Example 46] | 24 nM | 45 nM | 14 nM | 147 nM | 145 nM
COc1ccc(C(C)(C)C(=O)N2C[C@H](F)C[C@@H]2C(=O)Nc2ccc3[nH]ncc3n2)cc1 [Example 47] | 13 nM | 59 nM | 77 nM | 585 nM | 1140 nM
O=C(Nc1ccc2[nH]ncc2n1)[C@H]1C[C@@H](F)CN1C(=O)C1(c2ccc(OCF)cc2)CCC(F)(F)CC1 [Example 48] | 14 nM | 34 nM | 25 nM | 105 nM | 135 nM
COc1ccc(C2(C(=O)N3CCC[C@@H]3C(=O)Nc3cccc4[nH]ncc34)CCC2)cc1 [Example 53, N-1H-Indazol-4-yl-1-{[1-(4-methoxyphenyl)cyclobutyl]carbonyl}-D-prolinamide] |  |  | 2080 nM | 2640 nM | 6060 nM
COc1ccc(C2(C(=O)N3C[C@H](F)C[C@@H]3C(=O)Nc3ccc4c(n3)NC(=O)CO4)CCCCC2)cc1 [Example 67, (4R)-4-Fluoro-1-{[1-(4-methoxyphenyl)cyclohexyl]carbonyl}-N-(3-oxo-3,4-dihydro-2H-pyrido[3,2-b][1,4]oxazin-6-yl)-D-prolinamide] | 397 nM | 678 nM | 2410 nM |  | 
